Test results from PMC3961306, “Comparison of the Cancer Gene Targeting and Biochemical Selectivities of All Targeted Kinase Inhibitors Approved for Clinical Use” (PLoS ONE, 2014).

Tests used:
Experiment in all cases: Kinase profiling in a biochemical assay panel (mobility shift assays and ELISA), %-inhibition at 1 μM; selectivity entropy
[1] = molecular target: T1, panel of more than 300 wild-type and mutant kinases (313 kinase panel) (Homo sapiens, UniProt Q99759)
T1 sequence (Q99759 1-626): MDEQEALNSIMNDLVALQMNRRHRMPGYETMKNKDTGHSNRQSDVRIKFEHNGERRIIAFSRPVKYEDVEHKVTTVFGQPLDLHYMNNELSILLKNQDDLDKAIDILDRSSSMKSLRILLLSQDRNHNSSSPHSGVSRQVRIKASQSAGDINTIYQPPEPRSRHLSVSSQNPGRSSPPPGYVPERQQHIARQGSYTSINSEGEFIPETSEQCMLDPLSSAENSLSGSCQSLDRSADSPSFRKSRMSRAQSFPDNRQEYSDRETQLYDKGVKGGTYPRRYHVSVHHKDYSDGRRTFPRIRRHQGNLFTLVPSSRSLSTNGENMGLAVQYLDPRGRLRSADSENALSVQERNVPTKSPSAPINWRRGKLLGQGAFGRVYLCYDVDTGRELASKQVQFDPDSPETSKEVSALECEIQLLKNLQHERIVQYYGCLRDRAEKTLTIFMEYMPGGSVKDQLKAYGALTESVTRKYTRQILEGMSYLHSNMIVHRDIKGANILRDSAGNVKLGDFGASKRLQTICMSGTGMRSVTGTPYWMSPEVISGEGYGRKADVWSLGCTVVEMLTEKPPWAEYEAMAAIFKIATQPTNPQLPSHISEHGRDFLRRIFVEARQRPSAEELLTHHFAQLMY

[2] = molecular target: panel of more than 300 wild-type and mutant kinases (313 kinase panel) (Homo sapiens, UniProt P36507); conditions: kinase MAP2K2; compound at 1 μM
[3] = molecular target: panel of more than 300 wild-type and mutant kinases (313 kinase panel) (Homo sapiens, UniProt P05129); conditions: kinase PKCγ; 1 μM
[4] = molecular target: panel of more than 300 wild-type and mutant kinases (313 kinase panel) (Homo sapiens, UniProt P04049)
Sequence of panel of more than 300 wild-type and mutant kinases (313 kinase panel) (Homo sapiens, UniProt P04049) (P04049 whole entry, change not shown): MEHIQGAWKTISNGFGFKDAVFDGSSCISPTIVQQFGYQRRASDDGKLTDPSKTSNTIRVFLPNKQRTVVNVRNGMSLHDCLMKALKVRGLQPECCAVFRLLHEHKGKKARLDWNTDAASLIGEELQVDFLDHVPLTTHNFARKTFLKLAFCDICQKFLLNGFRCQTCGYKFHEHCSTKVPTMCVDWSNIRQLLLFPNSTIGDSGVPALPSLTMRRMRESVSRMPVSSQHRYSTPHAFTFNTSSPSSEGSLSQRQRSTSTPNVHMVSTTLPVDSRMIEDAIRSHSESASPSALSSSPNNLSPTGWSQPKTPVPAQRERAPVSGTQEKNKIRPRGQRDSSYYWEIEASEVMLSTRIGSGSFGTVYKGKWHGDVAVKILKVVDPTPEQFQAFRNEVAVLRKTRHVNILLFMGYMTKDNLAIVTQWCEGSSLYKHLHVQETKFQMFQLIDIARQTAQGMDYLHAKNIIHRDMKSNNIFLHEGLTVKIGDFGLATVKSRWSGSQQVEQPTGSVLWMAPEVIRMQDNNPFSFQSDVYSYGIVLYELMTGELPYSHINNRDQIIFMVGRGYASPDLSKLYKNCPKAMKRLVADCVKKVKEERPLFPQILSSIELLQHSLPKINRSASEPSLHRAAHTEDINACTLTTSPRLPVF

[5] = molecular target: panel of more than 300 wild-type and mutant kinases (313 kinase panel) (Homo sapiens, UniProt Q00526); conditions: kinase CDK3/CycE1; 1 μM compound
Sequence of panel of more than 300 wild-type and mutant kinases (313 kinase panel) (Homo sapiens, UniProt Q00526) (Q00526 whole entry, change not shown): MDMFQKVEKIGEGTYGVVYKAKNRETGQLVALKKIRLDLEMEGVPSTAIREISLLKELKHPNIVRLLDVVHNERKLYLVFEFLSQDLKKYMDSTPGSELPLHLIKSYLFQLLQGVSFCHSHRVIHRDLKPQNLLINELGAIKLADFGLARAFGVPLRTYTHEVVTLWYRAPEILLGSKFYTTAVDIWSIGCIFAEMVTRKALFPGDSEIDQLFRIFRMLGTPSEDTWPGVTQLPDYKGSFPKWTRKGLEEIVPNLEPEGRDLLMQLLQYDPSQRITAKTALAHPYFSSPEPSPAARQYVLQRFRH

[6] = molecular target: panel of more than 300 wild-type and mutant kinases (313 kinase panel) (Homo sapiens, UniProt Q9NYA1); conditions: kinase SPHK1; 1 μM
[7] = molecular target: panel of more than 300 wild-type and mutant kinases (313 kinase panel) (Homo sapiens, UniProt Q9P0L2)
Sequence of panel of more than 300 wild-type and mutant kinases (313 kinase panel) (Homo sapiens, UniProt Q9P0L2) (Q9P0L2 whole entry, change not shown): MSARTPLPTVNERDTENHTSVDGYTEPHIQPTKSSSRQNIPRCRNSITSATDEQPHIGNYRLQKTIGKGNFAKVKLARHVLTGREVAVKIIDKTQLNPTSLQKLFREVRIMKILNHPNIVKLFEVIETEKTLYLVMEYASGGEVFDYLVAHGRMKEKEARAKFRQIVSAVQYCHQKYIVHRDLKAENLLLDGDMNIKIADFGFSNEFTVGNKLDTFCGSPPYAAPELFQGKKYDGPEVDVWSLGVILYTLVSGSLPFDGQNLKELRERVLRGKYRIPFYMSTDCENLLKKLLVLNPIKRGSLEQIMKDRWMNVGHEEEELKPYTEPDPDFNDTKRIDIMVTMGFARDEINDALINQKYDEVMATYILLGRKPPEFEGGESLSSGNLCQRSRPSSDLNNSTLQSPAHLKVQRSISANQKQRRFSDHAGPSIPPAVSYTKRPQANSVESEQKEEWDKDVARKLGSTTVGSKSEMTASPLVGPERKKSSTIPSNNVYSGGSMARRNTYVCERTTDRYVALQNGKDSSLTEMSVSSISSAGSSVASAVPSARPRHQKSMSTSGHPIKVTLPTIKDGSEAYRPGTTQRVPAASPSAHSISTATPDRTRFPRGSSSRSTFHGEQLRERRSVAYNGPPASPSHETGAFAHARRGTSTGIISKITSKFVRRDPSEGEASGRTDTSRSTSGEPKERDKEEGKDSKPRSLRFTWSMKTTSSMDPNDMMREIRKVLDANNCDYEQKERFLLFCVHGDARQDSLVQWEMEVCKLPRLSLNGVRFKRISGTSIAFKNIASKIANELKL

[8] = molecular target: panel of more than 300 wild-type and mutant kinases (313 kinase panel) (Homo sapiens, UniProt P24941); conditions: for %-inhibition, CDK2/CycA2: kinase CDK2/CycA2
[9] = molecular target: panel of more than 300 wild-type and mutant kinases (313 kinase panel) (Homo sapiens, UniProt Q14289)
Sequence of panel of more than 300 wild-type and mutant kinases (313 kinase panel) (Homo sapiens, UniProt Q14289) (Q14289 whole entry, change not shown): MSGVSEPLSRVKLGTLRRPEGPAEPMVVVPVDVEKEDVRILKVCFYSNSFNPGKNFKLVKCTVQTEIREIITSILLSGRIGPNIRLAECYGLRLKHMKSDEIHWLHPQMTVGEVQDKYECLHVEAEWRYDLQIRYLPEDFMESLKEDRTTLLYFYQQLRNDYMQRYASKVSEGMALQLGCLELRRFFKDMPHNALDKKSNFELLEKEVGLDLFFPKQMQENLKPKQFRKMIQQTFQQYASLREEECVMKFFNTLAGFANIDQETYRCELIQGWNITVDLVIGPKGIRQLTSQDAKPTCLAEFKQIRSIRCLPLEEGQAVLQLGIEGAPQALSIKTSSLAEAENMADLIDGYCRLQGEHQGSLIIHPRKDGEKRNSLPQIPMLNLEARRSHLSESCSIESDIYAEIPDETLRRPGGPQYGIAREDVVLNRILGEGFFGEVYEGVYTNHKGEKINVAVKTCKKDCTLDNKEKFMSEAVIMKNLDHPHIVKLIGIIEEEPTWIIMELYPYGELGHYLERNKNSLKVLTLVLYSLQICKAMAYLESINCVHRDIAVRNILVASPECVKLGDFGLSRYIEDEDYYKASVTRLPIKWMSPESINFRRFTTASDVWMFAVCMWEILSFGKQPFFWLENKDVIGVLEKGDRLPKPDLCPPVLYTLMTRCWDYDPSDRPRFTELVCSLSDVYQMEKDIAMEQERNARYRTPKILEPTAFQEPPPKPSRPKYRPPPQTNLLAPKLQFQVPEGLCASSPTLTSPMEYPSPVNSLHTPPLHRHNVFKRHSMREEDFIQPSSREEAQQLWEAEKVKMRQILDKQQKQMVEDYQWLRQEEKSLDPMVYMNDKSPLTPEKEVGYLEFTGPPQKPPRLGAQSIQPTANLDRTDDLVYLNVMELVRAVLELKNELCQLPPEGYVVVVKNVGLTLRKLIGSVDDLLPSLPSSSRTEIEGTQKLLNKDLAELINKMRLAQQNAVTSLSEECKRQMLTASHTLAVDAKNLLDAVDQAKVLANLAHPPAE

[10] = molecular target: panel of more than 300 wild-type and mutant kinases (313 kinase panel) (Homo sapiens, UniProt P45983); conditions: kinase JNK1; compound at 1 μM
Sequence of panel of more than 300 wild-type and mutant kinases (313 kinase panel) (Homo sapiens, UniProt P45983) (P45983 whole entry, stated change not applied): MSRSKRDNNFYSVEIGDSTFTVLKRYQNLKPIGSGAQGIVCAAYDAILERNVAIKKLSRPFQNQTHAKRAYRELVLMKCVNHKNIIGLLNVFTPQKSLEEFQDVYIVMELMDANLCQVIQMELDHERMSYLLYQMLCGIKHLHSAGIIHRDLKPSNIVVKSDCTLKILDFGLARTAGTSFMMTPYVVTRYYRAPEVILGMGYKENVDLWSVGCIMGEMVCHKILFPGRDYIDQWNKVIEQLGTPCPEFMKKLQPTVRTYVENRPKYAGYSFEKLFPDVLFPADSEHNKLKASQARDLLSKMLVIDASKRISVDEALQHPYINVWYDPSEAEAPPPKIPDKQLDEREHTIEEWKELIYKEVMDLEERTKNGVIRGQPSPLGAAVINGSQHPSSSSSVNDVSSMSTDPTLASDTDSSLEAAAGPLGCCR

[11] = molecular target: panel of more than 300 wild-type and mutant kinases (313 kinase panel) (Homo sapiens, UniProt P07949, S891A)
Sequence of panel of more than 300 wild-type and mutant kinases (313 kinase panel) (Homo sapiens, UniProt P07949, S891A) (P07949 29-1114 S891A): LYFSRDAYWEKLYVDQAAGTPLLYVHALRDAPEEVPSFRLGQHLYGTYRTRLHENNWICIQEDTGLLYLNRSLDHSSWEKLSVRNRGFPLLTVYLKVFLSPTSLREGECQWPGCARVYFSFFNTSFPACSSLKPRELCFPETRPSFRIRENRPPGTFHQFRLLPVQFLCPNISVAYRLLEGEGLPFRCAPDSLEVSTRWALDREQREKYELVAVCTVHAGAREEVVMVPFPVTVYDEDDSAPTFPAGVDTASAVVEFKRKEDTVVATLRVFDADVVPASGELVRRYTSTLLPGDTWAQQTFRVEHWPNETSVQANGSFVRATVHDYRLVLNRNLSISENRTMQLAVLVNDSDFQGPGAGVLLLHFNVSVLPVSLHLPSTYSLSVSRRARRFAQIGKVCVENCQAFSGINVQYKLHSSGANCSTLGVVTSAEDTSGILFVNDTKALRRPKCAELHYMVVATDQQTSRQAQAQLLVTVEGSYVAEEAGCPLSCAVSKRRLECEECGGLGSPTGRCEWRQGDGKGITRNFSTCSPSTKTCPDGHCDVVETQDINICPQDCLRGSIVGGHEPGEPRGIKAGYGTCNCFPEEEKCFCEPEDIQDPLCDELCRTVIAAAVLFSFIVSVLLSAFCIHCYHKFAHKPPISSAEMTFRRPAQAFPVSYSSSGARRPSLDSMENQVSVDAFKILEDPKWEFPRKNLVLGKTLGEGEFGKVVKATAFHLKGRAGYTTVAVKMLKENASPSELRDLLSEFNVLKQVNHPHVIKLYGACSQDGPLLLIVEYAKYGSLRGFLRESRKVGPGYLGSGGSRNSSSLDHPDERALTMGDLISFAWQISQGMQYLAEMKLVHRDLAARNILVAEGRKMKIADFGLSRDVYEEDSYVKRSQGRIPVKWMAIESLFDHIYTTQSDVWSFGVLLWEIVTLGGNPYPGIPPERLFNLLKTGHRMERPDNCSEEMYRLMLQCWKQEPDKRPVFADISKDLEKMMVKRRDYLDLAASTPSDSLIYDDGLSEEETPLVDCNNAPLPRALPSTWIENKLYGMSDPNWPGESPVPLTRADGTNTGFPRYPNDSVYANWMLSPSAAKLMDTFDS

[12] = molecular target: T2, panel of more than 300 wild-type and mutant kinases (313 kinase panel) (Homo sapiens, UniProt Q96PN8); conditions: kinase TSSK3; compound at 1 μM
T2 sequence (Q96PN8 1-268): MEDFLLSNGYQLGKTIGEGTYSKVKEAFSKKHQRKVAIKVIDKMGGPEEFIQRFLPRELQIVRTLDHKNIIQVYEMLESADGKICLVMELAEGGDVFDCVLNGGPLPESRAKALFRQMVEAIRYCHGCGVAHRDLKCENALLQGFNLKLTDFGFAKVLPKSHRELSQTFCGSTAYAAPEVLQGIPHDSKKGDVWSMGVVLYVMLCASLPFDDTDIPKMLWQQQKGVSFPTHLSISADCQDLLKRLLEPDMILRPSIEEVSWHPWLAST

[13] = kinase MAP3K3, compound at 1 μM
[14] = kinase CDK2/CycE1, 1 μM compound

SMILES | %-inhibition of MAP3K3 [1, 13] | %-inhibition of MAP2K2 [2] | %-inhibition of PKCγ [3] | %-inhibition of RAF1 ([4]; kinase RAF1, 1 μM) | %-inhibition, CDK3/CycE1 [5] | %-inhibition of SPHK1 [6] | %-inhibition of MARK1 ([7]; kinase MARK1, compound at 1 μM) | %-inhibition, CDK2/CycA2 ([8]; 1 μM compound) | %-inhibition, CDK2/CycE1 [8, 14] | %-inhibition of PYK2 ([9]; kinase PYK2, 1 μM) | %-inhibition of JNK1 [10] | %-inhibition of RET(S891A) ([11]; kinase RET(S891A), 1 μM) | %-inhibition of TSSK3 [12] | %-inhibition of MAP3K3 ([1]; 1 µM) | %-inhibition of MARK1 ([7]; 1 µM) | %-inhibition, CDK2/CycE1 ([8]; 1 µM) | %-inhibition of RET(S891A) ([11]; 1 µM) | %-inhibition of RAF1 ([4]; 1 µM) | %-inhibition of PYK2 ([9]; 1 µM)
O=S(=O)(c1cccc2cnccc12)N1CCCNCC1 [fasudil] | -14% | 13% | 10% | 8% | 24% | -15% | -9% | 22% | 13% | 1.79% | -5.43% | -1.38% | -6% | – | – | – | – | – | –
CS(=O)(=O)CCNCc1ccc(-c2ccc3ncnc(Nc4ccc(OCc5cccc(F)c5)c(Cl)c4)c3c2)o1 [lapatinib] | – | 6% | -0.202% | 8% | 2.84% | -11% | – | – | – | -0.787% | -6% | – | 0.192% | 4.75% | 9% | -2.57% | 0.932% | – | –
Cc1cn(-c2cc(NC(=O)c3ccc(C)c(Nc4nccc(-c5cccnc5)n4)c3)cc(C(F)(F)F)c2)cn1 [nilotinib] | – | -12% | -1.31% | – | -1.6% | 11% | 12% | -0.282% | 20% | – | 36% | – | 12% | -21% | – | – | 81% | 58% | -63%
CNC(=O)c1cc(Oc2ccc(NC(=O)Nc3ccc(Cl)c(C(F)(F)F)c3)c(F)c2)ccn1 [regorafenib] | 9% | 16% | -8% | 96% | -1.17% | -14% | -24% | -12% | -2.7% | -0.496% | -1.47% | – | -4.39% | – | – | – | 102% | – | –
CO[C@H]1C[C@@H]2CC[C@@H](C)[C@@](O)(O2)C(=O)C(=O)N2CCCC[C@H]2C(=O)O[C@H]([C@H](C)C[C@@H]2CC[C@@H](OC(=O)C(C)(CO)CO)[C@H](OC)C2)CC(=O)[C@H](C)/C=C(\C)[C@@H](O)[C@@H](OC)C(=O)[C@H](C)C[C@H](C)/C=C/C=C/C=C/1C [temsirolimus] | 10% | 13% | -11% | -0.648% | -6% | -14% | -5% | -8% | -1.35% | -3% | -3.71% | -2.19% | -2.63% | – | – | – | – | – | –
CCCS(=O)(=O)Nc1ccc(F)c(C(=O)c2c[nH]c3ncc(-c4ccc(Cl)cc4)cc23)c1F [vemurafenib] | 8% | 30% | -4.39% | 96% | -4.34% | -11% | -9% | -3% | -5% | 0.921% | 1.47% | 60% | -3.19% | – | – | – | – | – | –
